In publication PMC10354055, “An optimized Nurr1 agonist provides disease-modifying effects in Parkinson’s disease models” (Nature Communications, 2023):
“And” between values parts separate entries of the source, which are not always exact repeats. Equal entries are not always repeated.

Assays:
N27-A cells [1] = assay: Lysosomal pH detection, LysoSensor, N27-A cells; assay type: cell-based, rat
Protocol: (§1) Lysosomal pH was detected as previously described. Briefly, after incubation in EBSS containing BafA1 (10 nM), CQ (20 µM), or 4A7C-301 (1 µM) for 6 h, HeLa and N27-A cells were treated with LysoSensor™ Yellow/Blue DND-160 (5 µM; Life Technology) for 45 min, followed by 2 washes in HEPES buffer (Gibco). Fluorescence images at excitation/emission wavelengths of 360/460 nm and 470/525 nm were taken immediately using a 400 nm dichroic mirror (KEYENCE). The ratio of fluorescence intensities (F360/470) were measured and calculated manually using ImageJ for each cell. The average pH from measuring 5 cells from each of three wells for each treatment group in both HeLa and N27-A cells was calculated by fitting the F360/470 values to a plotted pH calibration curve with KCl/NaCl buffered from pH 3.5 to 7.0 using GraphPad Prism (Version 8.0.2).

HeLa cells [2] = assay: Autophagic flux, Western blot LC3B and p62, HeLa cells; assay type: cell-based; conditions: for Relative LC3B-II experession (normalized to β-actin): Supplementary Figure S7f; for Relative p62 experession (normalized to β-actin): Supplementary Figure S7g
Protocol: (§2) Experiments were confirmed by duplicate measurements of the same sample. Quantification of immunoreactive bands was performed using ImageJ software (NIH, Bethesda, MD, USA) and expressed as a relative ratio against β-actin.
(§3) The band intensities were quantified using ImageJ and normalized against β-actin.

HeLa cells [3] = assay: Lysosomal pH detection, LysoSensor, HeLa cells; assay type: cell-based
Protocol: as §1

N27-A cells [4] = assay: Autophagic flux, Western blot LC3B and p62, N27-A cells; assay type: cell-based, rat; conditions: individual replicates
Protocol: as §2, §3

HeLa cells [5] = assay: Autophagolysosome (APL) formation assay, mRFP-GFP-LC3, HeLa cells; assay type: cell-based; conditions: EBSS, BafA1 10 nM, CQ 20 µM, 4A7C-301 1 µM
Protocol: Nurr1 transactivity was normalized to β-galactosidase activity.
(§4) HeLa and N27-A cells were transfected with tandem mRFP-GFP-LC3 (Addgene) plasmid using Lipofectamine 2000 (Invitrogen) in 24-well plates. After 24 h, cells were incubated in starvation medium (Earle’s Balanced Salt Solution, EBSS; Lonza) containing bafilomycin A1 (BafA1, 10 nM), CQ (20 µM), or 4A7C-301 (1 µM) for 6 h and then fixed with 4% formaldehyde for fluorescence detection. Images were taken using a KEYENCE microscope and red (mRFP) LC3 dots and yellow (mRFP+GFP) LC3 dots were counted from three independent wells for each treatment group. 10 cells were randomly selected and counted from each well and a total of 30 cells were analyzed for each treatment group in both HeLa and N27-A cells.

N27-A cells [6] = assay: Autophagolysosome (APL) formation assay, mRFP-GFP-LC3, N27-A cells; assay type: cell-based, rat; conditions: Figure 3b; mRFP-GFP-LC3; individual cells (30 per treatment)
Protocol: as §4

## CO/C1=C\C(C)=C\[C@@H](C)[C@@H](O)[C@@H](C)C/C(C)=C/C=C/[C@H](OC)[C@@H]([C@@H](C)[C@@H](O)[C@H](C)[C@@]2(O)C[C@@H](O)[C@H](C)[C@@H](C(C)C)O2)OC1=O [BafA1, bafilomycin A1]
N27-A cells [1]; Figure 3d, individual replicates
  Lysosomal pH: 6.143 and 6.404 and 6.371 and 6.241 and 6.729 and 6.827 and 6.567 and 6.11 and 6.469 and 6.925 and 6.664 and 6.078 and 6.045
N27-A cells [1]; N27-A, BafA1 10 nM, CQ 20 µM, 4A7C-301 1 µM
  lysosomal pH (in words): significantly increased
HeLa cells [2]; HeLa, LC3B-II and p62
  autophagic flux (in words): failed to terminate
HeLa cells [2]; time 0h
  Relative LC3B-II experession (normalized to β-actin): 0.339 and 0.384 and 0.423
  Relative p62 experession (normalized to β-actin): 0.909 and 0.809 and 0.904
HeLa cells [2]; time 0.5h
  Relative LC3B-II experession (normalized to β-actin): 0.689 and 0.867 and 0.926
  Relative p62 experession (normalized to β-actin): 0.781 and 0.847 and 0.974
HeLa cells [2]; time 1h
  Relative LC3B-II experession (normalized to β-actin): 0.885 and 1.051 and 1.126
  Relative p62 experession (normalized to β-actin): 0.754 and 0.822 and 0.940
HeLa cells [2]; time 2h
  Relative LC3B-II experession (normalized to β-actin): 0.981 and 1.172 and 1.156
  Relative p62 experession (normalized to β-actin): 0.804 and 0.850 and 0.987
HeLa cells [2]; time 4h
  Relative LC3B-II experession (normalized to β-actin): 1.098 and 1.172 and 1.288
  Relative p62 experession (normalized to β-actin): 0.978 and 0.992 and 1.169
HeLa cells [3]; HeLa, BafA1 10 nM, CQ 20 µM, 4A7C-301 1 µM
  lysosomal pH (in words): significantly increased
HeLa cells [3]; Supplementary Figure S7d, individual replicates
  Lysosomal pH: 6.632 and 6.371 and 6.762 and 6.208 and 6.436 and 6.697 and 6.241 and 7.055 and 6.469 and 6.827 and 6.045
N27-A cells [4]; Figure 3f, w/ MPP+, 0h
  Relative LC3B-II experession (normalized to β-actin): 0.733 and 0.699 and 0.753
N27-A cells [4]; Figure 3f, w/ MPP+, 4h
  Relative LC3B-II experession (normalized to β-actin): 1.710 and 1.577 and 1.762
N27-A cells [4]; Figure 3f, w/o MPP+, 0h
  Relative LC3B-II experession (normalized to β-actin): 0.546 and 0.525 and 0.431
N27-A cells [4]; Figure 3f, w/o MPP+, 4h
  Relative LC3B-II experession (normalized to β-actin): 1.603 and 1.576 and 1.411
N27-A cells [4]; Figure 3g, w/ MPP+, 0h
  Relative LC3B-II experession (normalized to β-actin): 1.449 and 1.354 and 1.694
N27-A cells [4]; Figure 3g, w/ MPP+, 4h
  Relative LC3B-II experession (normalized to β-actin): 1.439 and 1.341 and 1.659
N27-A cells [4]; Figure 3g, w/o MPP+, 0h
  Relative LC3B-II experession (normalized to β-actin): 1.447 and 1.262 and 1.249
N27-A cells [4]; Figure 3g, w/o MPP+, 4h
  Relative LC3B-II experession (normalized to β-actin): 1.807 and 1.586 and 1.554
HeLa cells [5]
  APL formation / autophagy (in words): completely inhibited
N27-A cells [6]
  LC3 dots/cell, Red LC3 dots: 1 dots/cell (14×) and 2 dots/cell (6×) and 0 dots/cell (8×) and 5 dots/cell and 3 dots/cell
  LC3 dots/cell, Yellow LC3 dots: 28 dots/cell (2×) and 29 dots/cell (3×) and 21 dots/cell and 37 dots/cell (2×) and 20 dots/cell and 41 dots/cell (2×) and 27 dots/cell (2×) and 31 dots/cell (6×) and 18 dots/cell and 32 dots/cell and 40 dots/cell (2×) and 38 dots/cell and 33 dots/cell and 36 dots/cell and 24 dots/cell and 22 dots/cell and 30 dots/cell and 23 dots/cell
